The first assay deals with KRas G12C mutant. In words: Ras GTP binding domain inhibition assay (Cy3-GTP/Cy5-GTP competition). Also on record: species or system human. As to conditions: 20 μM; with SOS (Table 7A). In short, it runs like this: (§1)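 His-tagged Ras proteins were captured on nickel-coated wells in Buffer-I (25 mM Tris-HCl pH 7.4, 27 mM KCl, 137 mM NaCl, 1 mM MgCl2, 1 mM DTT) or Buffer-II (50 mM Tris-HCl pH 7.0). Compounds (20 μM or serial dilution, 1% DMSO) were incubated 3 h at RT, ±Sos(556-1049) in the final hour. Bound Cy3-/Cy5-GTP (100 nM, 45 min) was read after washing.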
`CO[C@H]1C[C@@H](Nc2nc(-c3nccn3C)nc3sc(-c4cnn(C)c4)c(-c4ccccc4)c23)C1` [drawing 892]: the “KRas G12C mutant + SOS: % inh.” value is on record as “D (76-100% inhibition)”.

`COc1cccc(-c2sc3nc(-c4nccn4C)nc(NC4CCC(OC)C4)c3c2C)c1F` (stereo not drawn) [drawing 893]: the “KRas G12C mutant + SOS: % inh.” value is given as “C (51-75% inhibition)”.

Consider `COC1CCC(Nc2nc(-c3nccn3C)nc3sc(-c4cccc5[nH]ncc45)c(C)c23)C1` (stereo not drawn) [drawing 895], for which the “KRas G12C mutant + SOS: % inh.” value is listed as “D (76-100% inhibition)”.

Turning to `COCCn1ccnc1-c1nc(O)c2scc(-c3ccc(OCC(C)C)nc3)c2n1` [drawing 898], the “KRas G12C mutant + SOS: % inh.” value is reported as “C (51-75% inhibition)”.

With `CC(C)COc1ccc(-c2csc3c(O)nc(-c4nccn4Cc4ccccn4)nc23)cn1` [drawing 899], the “KRas G12C mutant + SOS: % inh.” value is “C (51-75% inhibition)”.

Turning to `COc1cccc(Cn2ccnc2-c2nc(O)c3scc(-c4ccc(OCC(C)C)nc4)c3n2)c1` [drawing 900], the “KRas G12C mutant + SOS: % inh.” value is reported as “B (26-50% inhibition)”.

Still in this assay, the particulars now being: 20 μM; without SOS (Table 7A).
`CO[C@H]1C[C@@H](Nc2nc(-c3nccn3C)nc3sc(-c4cnn(C)c4)c(-c4ccccc4)c23)C1` [drawing 892]: the “KRas G12C mutant: % inh.” value is “D (76-100% inhibition)”.

Take `COc1cccc(-c2sc3nc(-c4nccn4C)nc(NC4CCC(OC)C4)c3c2C)c1F` (stereo not drawn) [drawing 893]: the “KRas G12C mutant: % inh.” value is “D (76-100% inhibition)”.

On to `COC1CCC(Nc2nc(-c3nccn3C)nc3sc(-c4cccc5[nH]ncc45)c(C)c23)C1` (stereo not drawn) [drawing 895], for which the “KRas G12C mutant: % inh.” value is recorded as “B (26-50% inhibition)”.

Take `COCCn1ccnc1-c1nc(O)c2scc(-c3ccc(OCC(C)C)nc3)c2n1` [drawing 898]: the “KRas G12C mutant: % inh.” value is on record as “C (51-75% inhibition)”.

On to `CC(C)COc1ccc(-c2csc3c(O)nc(-c4nccn4Cc4ccccn4)nc23)cn1` [drawing 899], for which the “KRas G12C mutant: % inh.” value is reported as “C (51-75% inhibition)”.

Consider `COc1cccc(Cn2ccnc2-c2nc(O)c3scc(-c4ccc(OCC(C)C)nc4)c3n2)c1` [drawing 900], for which the “KRas G12C mutant: % inh.” value was “C (51-75% inhibition)”.

In another assay the test system is KRas Q61H mutant. The description is as above. Also on record: species or system human. As to conditions: 20 μM; with SOS (Table 7A). A digest of the protocol:
as §1
With `CO[C@H]1C[C@@H](Nc2nc(-c3nccn3C)nc3sc(-c4cnn(C)c4)c(-c4ccccc4)c23)C1` [drawing 892], the “KRas Q61H mutant + SOS: % inh.” value is on record as “D (76-100% inhibition)”.

Turning to `COc1cccc(-c2sc3nc(-c4nccn4C)nc(NC4CCC(OC)C4)c3c2C)c1F` (stereo not drawn) [drawing 893], the “KRas Q61H mutant + SOS: % inh.” value was “C (51-75% inhibition)”.

Take `COC1CCC(Nc2nc(-c3nccn3C)nc3sc(-c4cccc5[nH]ncc45)c(C)c23)C1` (stereo not drawn) [drawing 895]: the “KRas Q61H mutant + SOS: % inh.” value was “D (76-100% inhibition)”.

On to `COCCn1ccnc1-c1nc(O)c2scc(-c3ccc(OCC(C)C)nc3)c2n1` [drawing 898], for which the “KRas Q61H mutant + SOS: % inh.” value is listed as “C (51-75% inhibition)”.

For `CC(C)COc1ccc(-c2csc3c(O)nc(-c4nccn4Cc4ccccn4)nc23)cn1` [drawing 899], the “KRas Q61H mutant + SOS: % inh.” value was “D (76-100% inhibition)”.

For `COc1cccc(Cn2ccnc2-c2nc(O)c3scc(-c4ccc(OCC(C)C)nc4)c3n2)c1` [drawing 900], the “KRas Q61H mutant + SOS: % inh.” value is “C (51-75% inhibition)”.

Staying with this assay, now noted: 20 μM; without SOS (Table 7A).
With `CO[C@H]1C[C@@H](Nc2nc(-c3nccn3C)nc3sc(-c4cnn(C)c4)c(-c4ccccc4)c23)C1` [drawing 892], the “KRas Q61H mutant: % inh.” value was “D (76-100% inhibition)”.

Regarding `COc1cccc(-c2sc3nc(-c4nccn4C)nc(NC4CCC(OC)C4)c3c2C)c1F` (stereo not drawn) [drawing 893], the “KRas Q61H mutant: % inh.” value is given as “C (51-75% inhibition)”.

As for `COC1CCC(Nc2nc(-c3nccn3C)nc3sc(-c4cccc5[nH]ncc45)c(C)c23)C1` (stereo not drawn) [drawing 895], the “KRas Q61H mutant: % inh.” value is reported as “B (26-50% inhibition)”.

Turning to `COCCn1ccnc1-c1nc(O)c2scc(-c3ccc(OCC(C)C)nc3)c2n1` [drawing 898], the “KRas Q61H mutant: % inh.” value is listed as “D (76-100% inhibition)”.

With `CC(C)COc1ccc(-c2csc3c(O)nc(-c4nccn4Cc4ccccn4)nc23)cn1` [drawing 899], the “KRas Q61H mutant: % inh.” value was “C (51-75% inhibition)”.

As for `COc1cccc(Cn2ccnc2-c2nc(O)c3scc(-c4ccc(OCC(C)C)nc4)c3n2)c1` [drawing 900], the “KRas Q61H mutant: % inh.” value is given as “C (51-75% inhibition)”.

Another assay relates to KRas wild type. The description is as above. Also on record: species or system human. The settings on record: 20 μM; with SOS (Table 7A). A digest of the protocol: as §1
On to `CO[C@H]1C[C@@H](Nc2nc(-c3nccn3C)nc3sc(-c4cnn(C)c4)c(-c4ccccc4)c23)C1` [drawing 892], for which the “KRas wild type + SOS: % inh.” value is listed as “D (76-100% inhibition)”.

Consider `COc1cccc(-c2sc3nc(-c4nccn4C)nc(NC4CCC(OC)C4)c3c2C)c1F` (stereo not drawn) [drawing 893], for which the “KRas wild type + SOS: % inh.” value is “C (51-75% inhibition)”.

With `COC1CCC(Nc2nc(-c3nccn3C)nc3sc(-c4cccc5[nH]ncc45)c(C)c23)C1` (stereo not drawn) [drawing 895], the “KRas wild type + SOS: % inh.” value is given as “D (76-100% inhibition)”.

Consider `COCCn1ccnc1-c1nc(O)c2scc(-c3ccc(OCC(C)C)nc3)c2n1` [drawing 898], for which the “KRas wild type + SOS: % inh.” value is “C (51-75% inhibition)”.

`CC(C)COc1ccc(-c2csc3c(O)nc(-c4nccn4Cc4ccccn4)nc23)cn1` [drawing 899]: the “KRas wild type + SOS: % inh.” value is listed as “C (51-75% inhibition)”.

On to `COc1cccc(Cn2ccnc2-c2nc(O)c3scc(-c4ccc(OCC(C)C)nc4)c3n2)c1` [drawing 900], for which the “KRas wild type + SOS: % inh.” value was “B (26-50% inhibition)”.

Staying with this assay, now noted: 20 μM; without SOS (Table 7A).
On to `CO[C@H]1C[C@@H](Nc2nc(-c3nccn3C)nc3sc(-c4cnn(C)c4)c(-c4ccccc4)c23)C1` [drawing 892], for which the “KRas wild type % inh.” value is “D (76-100% inhibition)”.

Turning to `COc1cccc(-c2sc3nc(-c4nccn4C)nc(NC4CCC(OC)C4)c3c2C)c1F` (stereo not drawn) [drawing 893], the “KRas wild type % inh.” value was “C (51-75% inhibition)”.

In the case of `COC1CCC(Nc2nc(-c3nccn3C)nc3sc(-c4cccc5[nH]ncc45)c(C)c23)C1` (stereo not drawn) [drawing 895], the “KRas wild type % inh.” value is reported as “B (26-50% inhibition)”.

Take `COCCn1ccnc1-c1nc(O)c2scc(-c3ccc(OCC(C)C)nc3)c2n1` [drawing 898]: the “KRas wild type % inh.” value is recorded as “C (51-75% inhibition)”.

As to `CC(C)COc1ccc(-c2csc3c(O)nc(-c4nccn4Cc4ccccn4)nc23)cn1` [drawing 899], the “KRas wild type % inh.” value is on record as “D (76-100% inhibition)”.

As to `COc1cccc(Cn2ccnc2-c2nc(O)c3scc(-c4ccc(OCC(C)C)nc4)c3n2)c1` [drawing 900], the “KRas wild type % inh.” value is on record as “C (51-75% inhibition)”.

A further assay deals with T1, KRas G12D mutant (Homo sapiens, UniProt P01116, G12D).
T1 construct: fused on or other part: His tag, used for capture on nickel-coated plates
The description is as above. As to conditions: 20 μM; with SOS (Table 7A); read-out: KRas G12D mutant + SOS: % inh. In short, it runs like this: as §1
Consider `CO[C@H]1C[C@@H](Nc2nc(-c3nccn3C)nc3sc(-c4cnn(C)c4)c(-c4ccccc4)c23)C1` [drawing 892], for which the inhibition at 20 µM was in the range of 76 to 100%.

Consider `COc1cccc(-c2sc3nc(-c4nccn4C)nc(NC4CCC(OC)C4)c3c2C)c1F` (stereo not drawn) [drawing 893], for which the inhibition at 20 µM fell in the range of 51 to 75%.

Regarding `COC1CCC(Nc2nc(-c3nccn3C)nc3sc(-c4cccc5[nH]ncc45)c(C)c23)C1` (stereo not drawn) [drawing 895], the inhibition at 20 µM fell in the range of 51 to 75%.

In the case of `COCCn1ccnc1-c1nc(O)c2scc(-c3ccc(OCC(C)C)nc3)c2n1` [drawing 898], the inhibition at 20 µM is 51 to 75%.

Turning to `CC(C)COc1ccc(-c2csc3c(O)nc(-c4nccn4Cc4ccccn4)nc23)cn1` [drawing 899], the inhibition at 20 µM is 51 to 75%.

For `COc1cccc(Cn2ccnc2-c2nc(O)c3scc(-c4ccc(OCC(C)C)nc4)c3n2)c1` [drawing 900], the inhibition at 20 µM was 51 to 75%.

The assay is the same for the next values; noted with them: 20 μM; without SOS (Table 7A); read-out: KRas G12D mutant: % inh.
Turning to `CO[C@H]1C[C@@H](Nc2nc(-c3nccn3C)nc3sc(-c4cnn(C)c4)c(-c4ccccc4)c23)C1` [drawing 892], the inhibition at 20 µM lay within 51 to 75%.

Take `COc1cccc(-c2sc3nc(-c4nccn4C)nc(NC4CCC(OC)C4)c3c2C)c1F` (stereo not drawn) [drawing 893]: the inhibition at 20 µM was in the range of 76 to 100%.

`COC1CCC(Nc2nc(-c3nccn3C)nc3sc(-c4cccc5[nH]ncc45)c(C)c23)C1` (stereo not drawn) [drawing 895]: the inhibition at 20 µM was in the range of 26 to 50%.

`COCCn1ccnc1-c1nc(O)c2scc(-c3ccc(OCC(C)C)nc3)c2n1` [drawing 898]: the inhibition at 20 µM fell in the range of 51 to 75%.

In the case of `CC(C)COc1ccc(-c2csc3c(O)nc(-c4nccn4Cc4ccccn4)nc23)cn1` [drawing 899], the inhibition at 20 µM is 76 to 100%.

In the case of `COc1cccc(Cn2ccnc2-c2nc(O)c3scc(-c4ccc(OCC(C)C)nc4)c3n2)c1` [drawing 900], the inhibition at 20 µM is 51 to 75%.

The values are drawn from US20250296938A1, “Compounds that Interact with the Ras Superfamily for the Treatment of Cancers, Inflammatory Diseases, Rasopathies, and Fibrotic Disease” (SHY Therapeutics, LLC, priority 2018, published 2025).
